{"source": "patent US20240252651A1", "about": "“METHOD OF DELIVERING NUCLEIC ACIDS INTO CELLS” (GUANGZHOU LIDE BIOMEDICINE TECHNOLOGY CO., LTD., priority 2021, published 2024)", "key": {"Hela cells [1]": {"tested_on": "Hela cells", "assay": "Transfection of GFP-expressing plasmid DNA in Hela cells (flow cytometer)", "assay_type": "cell-based, human", "details": "plasmid DNA 0.5 μg/well, material 0.25 to 8 μg/well (dosages per FIG. 4), 24 h", "description": "In this experiment, with GFP-expressing plasmid DNA as a reporter gene, a gene transfection efficiency of a cationic lipid analog material in Hela cells was detected. A specific method was as follows:\nHela cells were inoculated in a 24-well plate and cultured in an incubator for 12 h; each of different cationic lipid analog materials (0.25 μg/well to 8 μg/well) was mixed with GFP-expressing plasmid DNA (0.5 μg/well) in 40 μL of a sodium acetate buffer (25 mM, pH 5.2), and resulting mixtures each were allowed to stand for 10 min and then diluted with 460 μL of an Opti-MEM medium to obtain plasmid DNA-loaded cationic lipid analog complex particle solutions; a medium for the Hela cells in the plate was removed, then the HeLa cells were washed once with PBS, and the complex particle solutions were added; and the cells were cultured for 24 h, and then a plasmid DNA transfection efficiency in cells was analyzed by a flow cytometer. A commercial gene transfection reagent Lipofectamine 2000 was adopted as a positive control."}, "Hela cells [2]": {"tested_on": "Hela cells", "assay": "Transfection of luciferase-expressing plasmid DNA in HeLa cells (luciferase expression)", "assay_type": "cell-based, human", "details": "plasmid DNA 0.5 μg, 24 h, luciferase expression level, FIG. 5", "description": "In this example, with luciferase-expressing plasmid DNA as a reporter gene, a gene transfection efficiency of a cationic lipid analog material in HeLa cells was detected. A specific operation method was as follows: Hela cells were inoculated in a 96-well plate and cultured in an incubator for 12 h; each of different cationic lipid analog materials was mixed with luciferase-expressing plasmid DNA (0.5 μg) in 40 μL of a sodium acetate buffer (25 mM, pH 5.2), and resulting mixtures each were allowed to stand for 10 min and then diluted with 460 μL of an Opti-MEM medium to obtain plasmid DNA-loaded cationic lipid analog complex particle solutions; a medium for the Hela cells in the plate was removed, then the Hela cells were washed once with PBS, and the complex particle solutions were added in a volume of 125 μL; the cells were cultured for 24 h, then a resulting culture supernatant was discarded, and the cells were fully lysed; and a substrate was added at 50 μl/well, and an expression level of luciferase was detected by a multi-mode microplate reader."}, "[3]": {"tested_on": "DC2.4, RAW 264.7, A549, BxPC3, and HeLa cells", "assay": "Transfection of GFP-expressing plasmid DNA in different types of cells (LSCM)", "assay_type": "cell-based, human, mouse", "details": "material 0.5 to 3 μg/well, plasmid DNA 0.5 μg/well, 24 h, FIG. 6", "description": "In this experiment, with I2R3C18-1A1 as a representative cationic lipid analog material and GFP-expressing plasmid DNA as a reporter gene, transfection effects of the cationic lipid analog material at different dosages (0.5 μg/well to 3 μg/well) for plasmid DNA (0.5 μg/well) in different types of cells were investigated. A commercial gene transfection reagent Lipofectamine 2000 was adopted as a positive control. In this experiment, a GFP-expressing plasmid DNA-loaded I2R3C18-1A1 particle complex solution was prepared with reference to the method in Example 8 and added to DC2.4, RAW 264.7, A549, BxPC3, and HeLa cells respectively, these cells were cultured for 24 h, and then a transfection efficiency of plasmid DNA in cells was observed by LSCM."}, "DC 2.4 cells": {"tested_on": "DC 2.4 cells", "assay": "Transfection of eGFP-mRNA in DC 2.4 cells (FCM and LSCM)", "assay_type": "cell-based, mouse", "details": "mRNA 0.2 μg/well, material 0.25 to 2 μg/well (dosages per FIG. 7), 24 h, FIG. 7-9", "description": "In this experiment, with eGFP-mRNA as model mRNA, an mRNA transfection efficiency of a cationic lipid analog material in DC 2.4 cells was detected. A specific operation method was as follows:\nDC 2.4 cells were inoculated in a 48-well plate and cultured in an incubator for 12 h; each of different cationic lipid analog materials (0.25 μg/well to 2 μg/well) was mixed with cGFP-expressing mRNA (0.2 μg/well) in 20 μL of a sodium acetate buffer (25 mM, pH 5.2), and resulting mixtures each were allowed to stand for 10 min and then diluted with 230 μL of a Opti-MEM medium to obtain mRNA-loaded complex particle solutions; a medium for the […] were washed once with PBS, and the complex particle solutions were added; and the cells were cultured for 24 h, an mRNA transfection efficiency in cells was observed by FCM and LSCM. A commercial gene transfection reagent Lipofectamine 2000 was adopted as a positive control."}, "A549 cells (A549-Luc)": {"tested_on": "A549 cells (A549-Luc)", "assay": "siRNA transfection, luciferase gene silencing in A549-Luc cells", "assay_type": "cell-based, human", "details": "final siRNA 100 nM, material 0.5 to 3 μg/well, 48 h, FIG. 10", "description": "In this experiment, with I2R2C18-1A1, I2R3C18-1A1, I2R2C18-2A1, and I2R3C18-2A1 as representative cationic lipid analog materials, siRNA transfection and delivery effects of the cationic lipid analog materials were detected in A549 cells (A549-Luc). A specific operation method was as follows:\nLuciferase-expressing A549 cells (A549-Luc) were inoculated in a 96-well plate and cultured in an incubator for 12 h; each of different materials (0.5 μg/well to 3 μg/well) was mixed with siRNA in 40 μL of a sodium acetate buffer (25 mM, pH 5.2), and resulting mixtures each were allowed to stand for 10 min and then diluted with 460 μL of an Opti-MEM medium to obtain siRNA-loaded complex particle solutions (final siRNA concentration was 100 nM); a medium for the A549-Luc cells in the plate was removed, then the A549-Luc cells were washed once with PBS, and the complex particle solutions each were added in a volume of 125 μL; the cells were cultured for 48 h, then a resulting culture supernatant was discarded, and the cells were fully lysed; and a substrate was added at 50 μl/well, and an expression level of luciferase was detected by a multi-mode microplate reader."}}, "note": "“Also recorded” adds a separate entry of the source.", "data": [{"smiles": "CCCCCCCC/C=C\\CCCCCCCC(=O)N(CCCN(CC)CC)C(C(=O)NCCOCCOCCNC(=O)C(C(C)C)N(CCCN(CC)CC)C(=O)CCCCCCC/C=C\\CCCCCCCC)C(C)C", "note": "(stereo not drawn) [I2R3C18-1A1]", "values": [{"measurement": "transfection efficiency of GFP-expressing plasmid DNA, compared with commercial transfection reagent Lipofectamine 2000", "setting": "Hela cells [1]", "result": "reaches or is higher than; also recorded: equivalent to or higher than"}, {"measurement": "transfection efficiency of luciferase-expressing plasmid DNA, compared with Lipofectamine 2000", "setting": "Hela cells [2]", "result": "equivalent to or higher than"}, {"measurement": "transfection of GFP-expressing plasmid DNA in different types of cells", "setting": "[3]", "result": "can transfect GFP-expressing plasmid DNA into tumor cells and immune cells"}, {"measurement": "mRNA transfection efficiency (eGFP-mRNA), compared with Lipofectamine 2000", "setting": "DC 2.4 cells", "result": "high transfection efficiency; also recorded: equivalent to or higher than"}, {"measurement": "gene silencing efficiency as a function of material dosage", "setting": "A549 cells (A549-Luc)", "result": "increases with the increase of a dosage"}, {"measurement": "siRNA transfection, silencing of the luciferase reporter gene", "setting": "A549 cells (A549-Luc)", "result": "efficient gene silencing; also recorded: can transfect siRNA into cells to specifically silence the expression of the luciferase reporter gene"}]}]}
